# Assay results from ChEMBL document CHEMBL1201862, “PubChem BioAssay data set” (2004).
#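 The compound was tested at five concentrations on cells cultured in 96-well plates, with a 48-hour exposure period. GI50 = concentration required for 50% inhibition of growth.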 Activity calls are given as the source filed them. Cut-off read from the data, not from the text of the source: active = GI50 up to about 1.1 µM and inactive = higher.
# Columns and labels:
# Test in all cases: NCI-60 cell line screen, 48 h
# M14 = system: M14
# SF-295 = system: SF-295
# EKVX = system: EKVX
# SF-268 = system: SF-268
# UACC-257 = system: UACC-257
# OVCAR-8 = system: OVCAR-8
# BT-549 = system: BT-549
# SF-539 = system: SF-539
# LOX IMVI = system: LOX IMVI
# SNB-75 = system: SNB-75
# HOP-92 = system: HOP-92
# OVCAR-5 = system: OVCAR-5
# 786-0 = system: 786-0
# PC-3 = system: PC-3
# SK-MEL-28 = system: SK-MEL-28
# IGROV-1 = system: IGROV-1
# CAKI-1 = system: CAKI-1
# TK-10 = system: TK-10
# CCRF-CEM = system: CCRF-CEM
# UACC-62 = system: UACC-62
# OVCAR-4 = system: OVCAR-4
# SN12C = system: SN12C
# SK-MEL-5 = system: SK-MEL-5
# NCI/ADR-RES = system: NCI/ADR-RES
# MOLT-4 = system: MOLT-4
# MDA-MB-231 = system: MDA-MB-231
# SW-620 = system: SW-620
# A549 = system: A549
# NCI-H460 = system: NCI-H460
# MDA-MB-435 = system: MDA-MB-435
# K562 = system: K562
# U-251 = system: U-251
# NCI-H226 = system: NCI-H226
# A498 = system: A498
# RXF 393 = system: RXF 393
# SK-MEL-2 = system: SK-MEL-2
# HT-29 = system: HT-29
# Hs-578T = system: Hs-578T
# SK-OV-3 = system: SK-OV-3
# HCT-15 = system: HCT-15
# HCC 2998 = system: HCC 2998
# MDA-N = system: MDA-N
# Malme-3M = system: Malme-3M
# ACHN = system: ACHN
# HCT-116 = system: HCT-116
# NCI-H522 = system: NCI-H522
# SNB-19 = system: SNB-19
# MCF7 = system: MCF7
# KM12 = system: KM12
# COLO 205 = system: COLO 205
# HOP-62 = system: HOP-62
# RPMI-8226 = system: RPMI-8226
# T47D = system: T47D
# SR = system: SR
# OVCAR-3 = system: OVCAR-3
# UO-31 = system: UO-31
# NCI-H23 = system: NCI-H23
# HL-60 = system: HL-60
# DU-145 = system: DU-145
smiles,measurement,setting,value
Cc1ccc(-c2c(C#N)c(-c3ccc([N+](=O)[O-])cc3)c(C#N)c(=O)n2NS(=O)(=O)c2ccccc2)cc1,GI50,M14,32.5 µM (inactive)
same,GI50,SF-295,27.8 µM (inactive)
same,GI50,EKVX,40.5 µM (inactive)
same,GI50,SF-268,49 µM (inactive)
same,GI50,UACC-257,88.3 µM (inactive)
same,GI50,OVCAR-8,31.6 µM (inactive)
same,GI50,BT-549,10.4 µM (inactive)
same,GI50,SF-539,32.3 µM (inactive)
same,GI50,LOX IMVI,25.9 µM (inactive)
same,GI50,SNB-75,28.4 µM (inactive)
same,GI50,HOP-92,13.3 µM (inactive)
same,GI50,OVCAR-5,64.4 µM (inactive)
same,GI50,786-0,45.3 µM (inactive)
same,GI50,PC-3,25.3 µM (inactive)
same,GI50,SK-MEL-28,36.3 µM (inactive)
same,GI50,IGROV-1,30.9 µM (inactive)
same,GI50,CAKI-1,97.3 µM (inactive)
same,GI50,TK-10,41.3 µM (inactive)
same,GI50,CCRF-CEM,19 µM (inactive)
same,GI50,UACC-62,20.9 µM (inactive)
same,GI50,OVCAR-4,28.1 µM (inactive)
same,GI50,SN12C,96.2 µM (inactive)
same,GI50,SK-MEL-5,12.1 µM (inactive)
same,GI50,NCI/ADR-RES,26.1 µM (inactive)
same,GI50,MOLT-4,18.9 µM (inactive)
same,GI50,MDA-MB-231,38.7 µM (inactive)
same,GI50,SW-620,38 µM (inactive)
same,GI50,A549,36.6 µM (inactive)
same,GI50,NCI-H460,32.3 µM (inactive)
same,GI50,MDA-MB-435,54.5 µM (inactive)
same,GI50,K562,39.3 µM (inactive)
same,GI50,U-251,40.3 µM (inactive)
same,GI50,NCI-H226,70.3 µM (inactive)
same,GI50,A498,57.7 µM (inactive)
same,GI50,RXF 393,29.4 µM (inactive)
same,GI50,SK-MEL-2,44 µM (inactive)
same,GI50,HT-29,41.8 µM (inactive)
same,GI50,Hs-578T,589 nM (active)
same,GI50,SK-OV-3,22.4 µM (inactive)
same,GI50,HCT-15,36 µM
same,GI50,HCC 2998,25.5 µM (inactive)
same,GI50,MDA-N,84.3 µM (inactive)
same,GI50,Malme-3M,29.9 µM (inactive)
same,GI50,ACHN,39.2 µM (inactive)
same,GI50,HCT-116,31.7 µM (inactive)
same,GI50,NCI-H522,28.6 µM (inactive)
same,GI50,SNB-19,42.6 µM (inactive)
same,GI50,MCF7,19.2 µM (inactive)
same,GI50,KM12,31.6 µM (inactive)
same,GI50,COLO 205,53.1 µM (inactive)
same,GI50,HOP-62,30.1 µM (inactive)
CCNC12CCC(C1)C(C)(C)C2=O (stereo not drawn),GI50,M14,> 100 µM (inactive)
same,GI50,SF-295,> 100 µM (inactive)
same,GI50,EKVX,> 100 µM (inactive)
same,GI50,RPMI-8226,> 100 µM (inactive)
same,GI50,UACC-257,> 100 µM (inactive)
same,GI50,OVCAR-8,> 100 µM (inactive)
same,GI50,BT-549,> 100 µM (inactive)
same,GI50,LOX IMVI,> 100 µM (inactive)
same,GI50,SNB-75,> 100 µM (inactive)
same,GI50,HOP-92,> 100 µM (inactive)
same,GI50,OVCAR-5,> 100 µM (inactive)
same,GI50,T47D,> 100 µM (inactive)
same,GI50,SR,> 100 µM (inactive)
same,GI50,786-0,> 100 µM (inactive)
same,GI50,PC-3,> 100 µM (inactive)
same,GI50,SK-MEL-28,> 100 µM (inactive)
same,GI50,IGROV-1,> 100 µM (inactive)
same,GI50,CAKI-1,> 100 µM (inactive)
same,GI50,TK-10,> 100 µM (inactive)
same,GI50,CCRF-CEM,> 100 µM (inactive)
same,GI50,UACC-62,> 100 µM (inactive)
same,GI50,OVCAR-4,> 100 µM (inactive)
same,GI50,OVCAR-3,> 100 µM (inactive)
same,GI50,SN12C,> 100 µM (inactive)
same,GI50,SK-MEL-5,> 100 µM (inactive)
same,GI50,UO-31,> 100 µM (inactive)
same,GI50,NCI/ADR-RES,> 100 µM (inactive)
same,GI50,MOLT-4,> 100 µM (inactive)
same,GI50,NCI-H23,> 100 µM (inactive)
same,GI50,SW-620,> 100 µM (inactive)
same,GI50,A549,> 100 µM (inactive)
same,GI50,NCI-H460,> 100 µM (inactive)
same,GI50,MDA-MB-435,> 100 µM (inactive)
same,GI50,K562,> 100 µM (inactive)
same,GI50,U-251,> 100 µM (inactive)
same,GI50,NCI-H226,> 100 µM (inactive)
same,GI50,HL-60,> 100 µM (inactive)
same,GI50,A498,> 100 µM (inactive)
same,GI50,RXF 393,> 100 µM (inactive)
same,GI50,SK-MEL-2,> 100 µM (inactive)
same,GI50,SK-OV-3,> 100 µM (inactive)
same,GI50,HCT-15,> 100 µM
same,GI50,HCC 2998,> 100 µM (inactive)
same,GI50,DU-145,> 100 µM (inactive)
same,GI50,MDA-N,> 100 µM (inactive)
same,GI50,ACHN,> 100 µM (inactive)
same,GI50,HCT-116,> 100 µM (inactive)
same,GI50,SNB-19,> 100 µM (inactive)
same,GI50,MCF7,> 100 µM (inactive)
same,GI50,KM12,> 100 µM (inactive)
same,GI50,COLO 205,> 100 µM (inactive)
same,GI50,HOP-62,> 100 µM (inactive)
